Experimental findings from US7365202B2, “Polymorphs of an androgen receptor modulator” (Merck & Co., Inc., priority 2005, dated 2008) are described below.

On data set [1], the source says: The weight increase was based on the initial total sample weight at 25% RH.
In data set [2] the target is T1, rhAR NTD/CTD interaction in CV-1 monkey kidney cells (Macaca mulatta, UniProt Q6QT55).
T1 construct: pCBB1 (Gal4DBD-rhARLBD fusion construct expressed under the SV40 early promoter); expressed in transfected cells; host or cells: CV-1 monkey kidney cells
T1 sequence (Q6QT55 644-895): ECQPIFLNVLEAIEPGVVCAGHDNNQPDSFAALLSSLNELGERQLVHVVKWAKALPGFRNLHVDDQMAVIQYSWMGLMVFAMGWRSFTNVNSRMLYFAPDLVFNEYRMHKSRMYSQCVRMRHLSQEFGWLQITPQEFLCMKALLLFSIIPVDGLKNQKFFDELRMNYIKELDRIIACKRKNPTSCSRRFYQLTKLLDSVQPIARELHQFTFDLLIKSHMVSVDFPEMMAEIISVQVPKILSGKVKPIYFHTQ
In words: Mammalian two-hybrid assay for ligand-induced interaction of N-terminus and C-terminus domains of the androgen receptor (agonist mode: VIRCON). As to conditions: at 10 micromolar; read-out: agonist activity (Emax relative to the activity obtained with 3 nM R1881). The data set is classed as cell-based. The text has this:
Mammalian Two-Hybrid Assay for the Ligand-Induced Interaction of N-Terminus and C-Terminus Domains of the Androgen Receptor (Agonist Mode: VIRCON)
This assay assesses the ability of AR agonists to induce the interaction between the N-terminal domain (NTD) and C-terminal domain (CTD) of rhAR that reflects the in vivo virilizing potential mediated by activated androgen receptors. The interaction of NTD and CTD of rhAR is quantified as ligand induced association between a Gal4DBD-rhARCTD fusion protein and a VP16-rhARNTD fusion protein as a mammalian two-hybrid assay in CV-1 monkey kidney cells.
The day before transfection, CV-1 cells are trypsinized and counted, and then plated at 20,000 cells/well in 96-well plates or larger plates (scaled up accordingly) in DMEM+10% FCS. […]
For each well, 0.4 μL LIPOFECTAMINE Reagent (GIBCO-BRL) is diluted into 4.6 μL OPTI-MEM in a second tube and mixed to form the diluted LIPOFECTAMINE Reagent. […] Forty eight hours later, luciferase activity is measured using LUC-Screen system (TROPIX) following the manufacturer's protocol. […] After incubation for 40 minutes at room temperature, luminescence is directly measured with 2-5 second integration. […]

The subject of data set [3] is human AR in MDA-MB-453 cells. In words: Trans-Activation Modulation of Androgen Receptor (TAMAR), MMTV-LUC reporter. The data set is classed as cell-based. As to the method: Trans-Activation Modulation of Androgen Receptor (TAMAR)
This assay assesses the ability of test compounds to control transcription from the MMTV-LUC reporter gene in MDA-MB-453 cells, a human breast cancer cell line that naturally expresses the human AR. The assay measures induction of a modified MMTV LTR/promoter linked to the LUC reporter gene.
20,000 to 30,000 cells/well are plated in a white, clear-bottom 96-well plate in “Exponential Growth Medium” which consists of phenol red-free RPMI 1640 containing 10%FBS, 4 mM L-glutamine, 20 mM HEPES, 10 ug/mL human insulin, and 20 ug/mL gentamicin. Incubator conditions are 37° C. and 5% CO2. The transfection is done in batch mode. The cells are trypsinized and counted to the right cell number in the proper amount of fresh media, and then gently mixed with the Fugene/DNA cocktail mix and plated onto the 96-well plate. All the wells receive 200 TI of medium+lipid/DNA complex and are then incubated at 37° C. overnight. The transfection cocktail consists of serum-free Optimem, Fugene6 reagent and DNA. The manufacturer's (Roche Biochemical) protocol for cocktail setup is followed. The lipid (Tl) to DNA (Tg) ratio is approximately 3:2 and the incubation time is 20 minutes at room temperature. Sixteen to 24 hrs after transfection, the cells are treated with test compounds such that the final DMSO (vehicle) concentration is <3%. […]

Structures are written as SMILES.

Take `CN1C(=O)C(F)=C[C@]2(C)[C@H]3CC[C@]4(C)[C@@H](C(=O)NCc5nc6ncccc6[nH]5)CC[C@H]4[C@@H]3CC[C@@H]12` [Form B, N-(3H-imidazo[4,5-b]pyridin-2-ylmethyl)-2-fluoro-4-methyl-3-oxo-4-aza-5α-androst-1-en-17β-carboxamide]: in data set [1] (25° C., relative humidity decreases from 95% to 5% RH), the “loss of total weight” value is “about 8%”. In addition, the “moisture uptake (weight increase based on initial total sample weight at 25% RH)” value in data set [1] (from about 25% to about 95% RH at 25° C.) is listed as “about 7%”.
By Emax is commonly meant the size of the effect at its maximum, as opposed to the concentration needed. In the case of `CN1C(=O)C(F)=C[C@]2(C)C3CC[C@]4(C)[C@@H](C(=O)NCc5nc6cccnc6[nH]5)CC[C@H]4C3CC[C@@H]12` (stereo partly drawn) [compound of formula I, N-(3H-imidazo[4,5-b]pyridin-2-ylmethyl)-2-fluoro-4-methyl-3-oxo-4-aza-5-alpha-androst-1-en-17-beta-carboxamide], the Emax at 10 µM in data set [2] was below 50%. In data set [3], the “partial agonist activity (Emax relative to the activity obtained with 100 nM R1881)” value is on record as “greater than 10%”.
